Measurements reported in PMC3985444 (Journal of Chemical Information and Modeling, 2014).

Tests used:
human 5-HT1A receptor = target: T1, human 5-HT1A receptor (Homo sapiens, UniProt P08908); test: Radioligand competition binding assay
T1 sequence (P08908 1-422): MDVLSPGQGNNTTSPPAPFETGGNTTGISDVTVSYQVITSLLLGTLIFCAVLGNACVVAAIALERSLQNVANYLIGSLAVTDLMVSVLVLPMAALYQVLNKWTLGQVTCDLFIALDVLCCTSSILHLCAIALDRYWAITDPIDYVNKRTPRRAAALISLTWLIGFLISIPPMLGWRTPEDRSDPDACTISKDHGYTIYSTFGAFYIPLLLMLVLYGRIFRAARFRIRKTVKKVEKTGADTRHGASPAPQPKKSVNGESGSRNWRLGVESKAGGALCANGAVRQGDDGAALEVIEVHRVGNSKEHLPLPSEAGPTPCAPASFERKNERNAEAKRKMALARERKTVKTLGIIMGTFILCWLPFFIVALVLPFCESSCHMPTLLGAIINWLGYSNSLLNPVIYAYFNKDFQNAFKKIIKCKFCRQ

5-HT2A = details: cited from earlier work
dopamine receptors = details: cited from earlier work
5-HT1B = details: cited from earlier work
5-HT1D = details: cited from earlier work

## CN1CCCCC1CCN1c2ccccc2Sc2ccc([S+](C)[O-])cc21 (stereo not shown) [Mesoridazine]
Human 5-HT1A receptor
  Ki: 33.1 nM
5-HT2A
  binding with 5-HT2A: potent binding
Dopamine receptors
  binding with dopamine receptors: potent binding

## CC[C@@H](CO)NC(=O)[C@@H]1C=C2c3cccc4c3c(cn4C)C[C@H]2N(C)C1 [Methysergide]
Human 5-HT1A receptor
  Ki: 26 nM

## CN1C[C@@H](CO)C=C2c3cccc4[nH]cc(c34)C[C@H]21 [ST057540, [(8α)-6-methyl-9,10-didehydroergolin-8-yl]methanol]
Human 5-HT1A receptor
  Ki: 2.3 nM
5-HT1B
  binding to 5-HT1B: high-affinity binding
5-HT1D
  binding to 5-HT1D: high-affinity binding
